# According to patent US20110152092A1, “Herbicidal compositions comprising flufenacet” (Bayer CropScience AG, priority 2009, published 2011):
# Columns and labels:
# ALOMY = experiment: Greenhouse trial, PE application on sensitive and resistant biotypes (test method 8); format: in vivo, Alopecurus myosuroides; conditions: g of AS/ha: (A) 90, (B) 1200, (C) 90, mixture 90 + 1200 + 90, iodosulfuron 10
# Description: (§1) In the standard design of the test, seeds of various broad-leaved weed and weed grass biotypes (origins) were sown in a 8-13 cm diameter pot filled with natural soil of a standard field soil (loamy silt; non-sterile) and covered with a covering soil layer of about 1 cm. The pots were then cultivated in a greenhouse (12-16 h of light, temperature day 20-22° C., night 15-18° C.) until the time of application. The pots were treated on a laboratory track sprayer with spray liquors comprising the compositions according to the invention, mixtures of the prior art or components used individually. Application of the active compounds or active compound combinations formulated as WG, WP, EC or otherwise was carried out at the appropriate growth stages of the plants. The application rate for the spray application was 100-600 l of water/ha. After the treatment, the plants were returned to the greenhouses.
# (§2) About 3 weeks after the application, the soil action or/and foliar action was assessed visually according to a scale of 0-100% in comparison to an untreated comparative group: 0%=no noticeable effect compared to the untreated comparative group; 100%=full effect compared to the untreated comparative group.
# (§3) (notes: the term “seeds” also includes vegetative propagation forms such as, for example, rhizome pieces; abbreviations used: h light=hours of illumination, g of AS/ha=gram of active substance per hectare, l/ha=liter per hectare, S=sensitive, R=resistant) • 1. Pre-emergence action against weeds: seeds of various broad-leaved weed and weed grass biotypes (origins) were sown in a 8-13 cm diameter pot filled with natural soil of a standard field soil (loamy silt; non-sterile) and covered with a covering soil layer of about 1 cm. The pots were then cultivated in a greenhouse (12-16 h of light, temperature day 20-22° C., night 15-18° C.) until the time of application. The pots were treated at the BBCH stage 00-10 of the seeds/plants on a laboratory track sprayer with spray liquors comprising the compositions according to the invention, mixtures or components used individually, as WG, WP, EC or other formulations. The application rate for the spray application was 100-600 l of water/ha. After the treatment, the plants were returned to the greenhouses and, when required, treated with fertilizer and watered. • 2. Post-emergence action against weeds: seeds of various broad-leaved weed and weed grass biotypes (origins) were sown in a 8-13 cm diameter pot filled with natural soil of a standard field soil (loamy silt; non-sterile) and covered with a covering soil layer of about 1 cm. The pots were then cultivated in a greenhouse (12-16 h of light, temperature day 20-22° C., night 15-18° C.) until the time of application. The pots were treated at various BBCH stages between 11-25 of the seeds/plants, i.e. generally between two to three weeks after the start of the cultivation, on a laboratory track sprayer with spray liquors comprising the compositions according to the invention, mixtures or components used individually, as WG, WP, EC or other formulations. The application rate for the spray application was 100-600 l of water/ha. After the treatment, the plants were returned to the greenhouses and, when required, treated with fertilizer and watered. • 3. Selective pre-emergence action: seeds of various crop species (origins) were sown in a 8-13 cm diameter pot filled with natural soil of a standard field soil (loamy silt; non-sterile) and covered with a covering soil layer of about 1 cm. The pots were then cultivated in a greenhouse (12-16 h of light, temperature day 20-22° C., night 15-18° C.) until the time of application. The pots were treated at the BBCH stage 00-10 of the seeds/plants on a laboratory track sprayer with spray liquors comprising the compositions according to the invention, mixtures or components used individually, as WG, WP, EC or other formulations. The application rate for the spray application was 100-600 l of water/ha. […]
# MATCH [1] = experiment: Greenhouse trial, PE application with different irrigation variations (test method 6); format: in vivo, Matricaria chamomilla; conditions: irrigation from above, g of AS/ha: (A) 120, (B) 1200, (C) 90, mixture 120 + 1200 + 90
# Description: as §1, §2
# (§4) (notes: the term “seeds” also includes vegetative propagation forms such as, for example, rhizome pieces; abbreviations used: h light=hours of illumination, g of AS/ha=gram of active substance per hectare, l/ha=liter per hectare, S=sensitive, R=resistant) • 1. Pre-emergence action against weeds: seeds of various broad-leaved weed and weed grass biotypes (origins) were sown in a 8-13 cm diameter pot filled with natural soil of a standard field soil (loamy silt; non-sterile) and covered with a covering soil layer of about 1 cm. The pots were then cultivated in a greenhouse (12-16 h of light, temperature day 20-22° C., night 15-18° C.) until the time of application. […]
# LOLPE = experiment: Greenhouse trial, PO application, post-emergence action against weeds (test method 2); format: in vivo, Lolium perenne; conditions: g of AS/ha: (A) 120, (B) 1200, (C) 120, mixture 120 + 1200 + 120
# Description: as §1
# as §2, with “group. […]” for “group.”
# APESV = experiment: Greenhouse trial, PE application at different sowing depths (test method 9); format: in vivo, Apera Spica-venti; conditions: sowing depth 5 mm, g of AS/ha: (A) 120, (B) 1200, (C) 90, mixture 90 + 1200 + 90
# Description: as §1, §2, §4
# STEME = experiment: Greenhouse trial, activity with different soil types; format: in vivo, Stellaria media; conditions: g of AS/ha: (A) 120, (B) 1200, (C) 90, mixture 120 + 1200 + 90
# Description: as §1, §2, §3
# MATCH [2] = experiment: as above; format: in vivo, Matricaria chamomilla; conditions: g of AS/ha: (A) 120, (B) 1200, (C) 90, mixture 120 + 1200 + 90
# Description: as §1, §2
# (notes: the term “seeds” also includes vegetative propagation forms such as, for example, rhizome pieces; abbreviations used: h light=hours of illumination, g of AS/ha=gram of active substance per hectare, l/ha=liter per hectare, S=sensitive, R=resistant) • 1. Pre-emergence action against weeds: seeds of various broad-leaved weed and weed grass biotypes (origins) were sown in a 8-13 cm diameter pot filled with natural soil of a standard field soil (loamy silt; non-sterile) and covered with a covering soil layer of about 1 cm. The pots were then cultivated in a greenhouse (12-16 h of light, temperature day 20-22° C., night 15-18° C.) until the time of application. The pots were treated at the BBCH stage 00-10 of the seeds/plants on a laboratory track sprayer with spray liquors comprising the compositions according to the invention, mixtures or components used individually, as WG, WP, EC or other formulations. The application rate for the spray application was 100-600 l of water/ha. After the treatment, the plants were returned to the greenhouses and, when required, treated with fertilizer and watered. • 2. Post-emergence action against weeds: seeds of various broad-leaved weed and weed grass biotypes (origins) were sown in a 8-13 cm diameter pot filled with natural soil of a standard field soil (loamy silt; non-sterile) and covered with a covering soil layer of about 1 cm. The pots were then cultivated in a greenhouse (12-16 h of light, temperature day 20-22° C., night 15-18° C.) until the time of application. The pots were treated at various BBCH stages between 11-25 of the seeds/plants, i.e. generally between two to three weeks after the start of the cultivation, on a laboratory track sprayer with spray liquors comprising the compositions according to the invention, mixtures or components used individually, as WG, WP, EC or other formulations. The application rate for the spray application was 100-600 l of water/ha. After the treatment, the plants were returned to the greenhouses and, when required, treated with fertilizer and watered. • 3. […]
smiles,measurement,setting,value
"CC(C)N(C(=O)COc1nnc(C(F)(F)F)s1)c1ccc(F)cc1 [(A) flufenacet, N-(4-fluorophenyl)-N-(1-methylethyl)-2-[[5-(trifluoromethyl)-1,3,4-thiadiazol-2-yl]oxy]acetamide]","activity ALOMY resistant (visual, scale 0-100%)",ALOMY; resistant biotype,68%
same,"activity ALOMY sensitive (visual, scale 0-100%)",ALOMY; sensitive biotype,80%
same,"activity MATCH (visual, scale 0-100%)",MATCH [1],97%
same,"activity LOLPE (visual, scale 0-100%)",LOLPE,65%
same,"activity APESV 5 mm (visual, scale 0-100%)",APESV,67%
same,"activity STEME IU soil (visual, scale 0-100%)",STEME; IU soil,89%
same,"Difference of the soil types, STEME",STEME; IU/EC73 soil versus IU soil,−89%
same,"Difference of the soil types, MATCH",MATCH [2]; IU/EC73 soil versus IU soil,−28%
same,"activity MATCH IU/EC73 soil (visual, scale 0-100%)",MATCH [2]; IU/EC73 soil,0%
